Assay results as given in ChEMBL document CHEMBL5634134, “Design, synthesis, and biological evaluation of novel 4,4'-bipyridine derivatives acting as CDK9-Cyclin T1 protein-protein interaction inhibitors against triple-negative breast cancer” (Eur J Med Chem, 2023).
Calls of active or inactive are those of the source. The calls are words filed in the database; no cut-off is given here.

Columns and labels:
[1] = test system: MDA-MB-231; experiment: Induction of apoptosis in human MDA-MB-231 cells assessed as necrotic cells at 37 nM incubated for 72 hrs by Annexin V-FITC/PI staining based flow cytometry analysis (reference value: 0.49 %); assay type: functional
[2] = test system: MDA-MB-231; experiment: Induction of apoptosis in human MDA-MB-231 cells assessed as viable cells at 37 nM incubated for 72 hrs by Annexin V-FITC/PI staining based flow cytometry analysis (reference value: 94.81 %); assay type: functional; conditions: read-out: Activity
[3] = test system: MDA-MB-231; experiment: Effect on Mcl-1 protein expression in human MDA-MB-231 cells transfected with shCDK9 at 300 nM by Western blot analysis; assay type: functional, cell-based
[4] = test system: MDA-MB-231; experiment: Inhibition of cell invasion in human MDA-MB-231 cells incubated for 24 hrs by crystal violet staining based transwell matrix penetration assay; assay type: functional; conditions: dose 37-1000 nM
[5] = Toxicity in athymic BALB/c mouse implanted with mouse 4T1 cells assessed as reduction in tolerance at 12.5 mg/kg, ip administered for 14 days; assay type: organism-based; conditions: in vivo, 336 h, time 14 day
[6] = test system: MDA-MB-231; experiment: Induction of apoptosis in human MDA-MB-231 cells assessed as viable cells at 111 nM incubated for 72 hrs by Annexin V-FITC/PI staining based flow cytometry analysis (reference value: 94.81 %); assay type: functional; conditions: read-out: Activity
[7] = test system: MDA-MB-231; experiment: Induction of apoptosis in human MDA-MB-231 cells transfected with shCDK9 assessed as increase in cleaved PARP expression at 300 nM by Western blot analysis; assay type: functional, cell-based
[8] = test system: 4T1; experiment: Antitumor activity against mouse 4T1 cells implanted in athymic BALB/c mouse assessed as tumor inhibition rate at 25 mg/kg, ip administered for 14 days relative to control; assay type: functional; conditions: 4T1, 336 h, time 14 day
[9] = Cytotoxicity against human MCF-10A cells assessed as inhibition of cell growth incubated for 72 hrs by MTT assay; assay type: toxicity, cell-based
[10] = test system: MDA-MB-231; experiment: Induction of apoptosis in human MDA-MB-231 cells assessed as early apoptotic cells at 333 nM incubated for 72 hrs by Annexin V-FITC/PI staining based flow cytometry analysis (reference value: 0.66 %); assay type: functional
[11] = test system: MDA-MB-231; experiment: Induction of apoptosis in human MDA-MB-231 cells assessed as increase in cleaved PARP-1 protein incubated for 24 hrs by Western blotting analysis; assay type: functional, cell-based; conditions: dose 37-1000 nM
[12] = test system: MDA-MB-231; experiment: Induction of apoptosis in human MDA-MB-231 cells assessed as viable cells at 333 nM incubated for 72 hrs by Annexin V-FITC/PI staining based flow cytometry analysis (reference value: 94.81 %); assay type: functional; conditions: read-out: Activity
[13] = test system: MDA-MB-231; experiment: Induction of apoptosis in human MDA-MB-231 cells assessed as necrotic cells at 111 nM incubated for 72 hrs by Annexin V-FITC/PI staining based flow cytometry analysis (reference value: 0.49 %); assay type: functional
[14] = test system: MDA-MB-231; experiment: Induction of apoptosis in human MDA-MB-231 cells assessed as early apoptotic cells at 111 nM incubated for 72 hrs by Annexin V-FITC/PI staining based flow cytometry analysis (reference value: 0.66 %); assay type: functional
[15] = Toxicity in athymic BALB/c mouse implanted with mouse 4T1 cells assessed as lung tissue damage at 12.5 to 25 mg/kg, ip administered for 14 days; assay type: organism-based; conditions: in vivo, 336 h, dose 12.5-25 mg/kg, time 14 day
[16] = test system: MDA-MB-231; experiment: Effect on RNA polymerase II phosphorylation at Ser2 residue in human MDA-MB-231 cells transfected with shCDK9 at 300 nM by Western blot analysis; assay type: functional, cell-based
[17] = biological target: Cyclin-dependent kinase 2 (Homo sapiens) (UniProt P24941); experiment: Binding affinity to CDK2 in human MDA-MB-231 cells asssesed as thermal stabilization at 1 uM incubated for 8 hrs under 45 to 65 degreeC by Western blot analysis; assay type: cell-based
[18] = test system: MDA-MB-231; experiment: Antiproliferative activity against human MDA-MB-231 cells assessed as decrease in sphere size by measuring diameter at 100 nM incubated for 10 days in presence of olaparib by confocal laser scanning microscopy; assay type: functional; conditions: time 10 day
[19] = test system: MDA-MB-231; experiment: Inhibition of colony formation in human MDA-MB-231 cells assessed as reduction in colony number at >=111 nM incubated for 10 days by crystal violet staining based analysis relative to control; assay type: functional; conditions: time 10 day
[20] = Toxicity in athymic BALB/c mouse implanted with mouse 4T1 cells assessed as liver tissue damage at 12.5 to 25 mg/kg, ip administered for 14 days; assay type: organism-based; conditions: in vivo, 336 h, dose 12.5-25 mg/kg, time 14 day
[21] = test system: 4T1; experiment: Antitumor activity against mouse 4T1 cells implanted in athymic BALB/c mouse assessed as reduction in tumor weight at 12.5 to 25 mg/kg, ip administered for 14 days; assay type: functional, organism-based; conditions: dose 12.5-25 mg/kg, time 14.0 day
[22] = biological target: Cyclin-dependent kinase 7 (Homo sapiens) (UniProt P50613); experiment: Binding affinity to CDK7 in human MDA-MB-231 cells asssesed as thermal stabilization at 1 uM incubated for 8 hrs under 45 to 65 degreeC by Western blot analysis; assay type: cell-based
Cyclin-dependent kinase 7 (Homo sapiens), sequence (P50613 whole entry): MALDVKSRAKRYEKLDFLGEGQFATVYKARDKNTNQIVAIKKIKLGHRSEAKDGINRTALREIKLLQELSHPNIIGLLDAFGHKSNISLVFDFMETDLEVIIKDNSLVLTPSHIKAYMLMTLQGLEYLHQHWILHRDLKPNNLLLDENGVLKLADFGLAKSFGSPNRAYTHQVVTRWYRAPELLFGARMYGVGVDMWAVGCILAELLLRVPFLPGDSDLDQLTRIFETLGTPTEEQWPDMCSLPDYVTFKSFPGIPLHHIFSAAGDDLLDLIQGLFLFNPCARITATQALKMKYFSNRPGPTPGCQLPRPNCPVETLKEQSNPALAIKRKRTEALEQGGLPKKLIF

[23] = Cytotoxicity against human L02 cells assessed as inhibition of cell growth incubated for 72 hrs by MTT assay; assay type: toxicity, cell-based
[24] = Toxicity in athymic BALB/c mouse implanted with mouse 4T1 cells assessed as kidney tissue damage at 12.5 to 25 mg/kg, ip administered for 14 days; assay type: organism-based; conditions: in vivo, 336 h, dose 12.5-25 mg/kg, time 14 day
[25] = test system: MDA-MB-231; experiment: Inhibition of colony formation in human MDA-MB-231 cells assessed as reduction in colony number incubated for 10 days by crystal violet staining based analysis; assay type: functional, cell-based; conditions: dose 12-1000 nM, time 10.0 day
[26] = biological target: Cyclin-dependent kinase 12 (Homo sapiens) (UniProt Q9NYV4); experiment: Binding affinity to CDK12 in human MDA-MB-231 cells asssesed as thermal stabilization at 1 uM incubated for 8 hrs under 45 to 65 degreeC by Western blot analysis; assay type: cell-based
Cyclin-dependent kinase 12 (Homo sapiens), sequence (Q9NYV4 whole entry, looked up): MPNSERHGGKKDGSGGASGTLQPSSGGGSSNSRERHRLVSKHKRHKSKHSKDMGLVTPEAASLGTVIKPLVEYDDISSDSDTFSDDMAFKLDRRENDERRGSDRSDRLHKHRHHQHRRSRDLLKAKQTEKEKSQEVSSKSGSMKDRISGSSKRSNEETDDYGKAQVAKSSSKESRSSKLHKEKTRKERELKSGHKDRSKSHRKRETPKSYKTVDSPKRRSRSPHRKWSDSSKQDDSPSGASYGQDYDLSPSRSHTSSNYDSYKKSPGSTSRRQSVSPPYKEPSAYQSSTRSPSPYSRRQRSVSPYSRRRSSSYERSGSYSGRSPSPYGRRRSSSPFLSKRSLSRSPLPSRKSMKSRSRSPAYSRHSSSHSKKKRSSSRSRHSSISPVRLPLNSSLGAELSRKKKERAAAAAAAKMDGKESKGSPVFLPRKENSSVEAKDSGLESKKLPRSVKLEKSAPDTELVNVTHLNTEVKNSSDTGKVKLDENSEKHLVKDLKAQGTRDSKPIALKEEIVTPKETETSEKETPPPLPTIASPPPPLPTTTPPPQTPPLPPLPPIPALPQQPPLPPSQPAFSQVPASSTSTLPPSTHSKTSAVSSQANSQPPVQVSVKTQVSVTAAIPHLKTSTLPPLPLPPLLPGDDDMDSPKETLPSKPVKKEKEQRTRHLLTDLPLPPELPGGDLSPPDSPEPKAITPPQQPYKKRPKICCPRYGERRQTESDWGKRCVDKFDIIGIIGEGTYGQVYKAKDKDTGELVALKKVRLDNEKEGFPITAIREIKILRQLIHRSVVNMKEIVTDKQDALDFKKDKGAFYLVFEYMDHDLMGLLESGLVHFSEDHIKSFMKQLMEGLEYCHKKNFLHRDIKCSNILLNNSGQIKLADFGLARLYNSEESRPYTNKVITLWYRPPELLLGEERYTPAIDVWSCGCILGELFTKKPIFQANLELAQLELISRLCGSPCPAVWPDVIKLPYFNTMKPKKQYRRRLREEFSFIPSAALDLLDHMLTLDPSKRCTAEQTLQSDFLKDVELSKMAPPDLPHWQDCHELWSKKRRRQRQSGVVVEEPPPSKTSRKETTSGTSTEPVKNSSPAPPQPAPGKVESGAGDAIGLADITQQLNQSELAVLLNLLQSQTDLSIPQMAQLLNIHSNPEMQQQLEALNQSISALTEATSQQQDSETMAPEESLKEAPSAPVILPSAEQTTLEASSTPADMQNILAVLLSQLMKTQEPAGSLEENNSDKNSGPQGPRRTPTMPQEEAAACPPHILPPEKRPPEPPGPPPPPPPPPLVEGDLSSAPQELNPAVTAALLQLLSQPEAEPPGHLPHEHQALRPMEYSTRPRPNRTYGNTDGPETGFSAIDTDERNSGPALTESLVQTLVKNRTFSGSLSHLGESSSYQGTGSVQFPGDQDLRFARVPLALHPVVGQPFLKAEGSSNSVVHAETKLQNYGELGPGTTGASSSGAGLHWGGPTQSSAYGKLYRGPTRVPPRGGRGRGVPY

[27] = test system: MDA-MB-231; experiment: Induction of apoptosis in human MDA-MB-231 cells assessed as late apoptotic cells at 111 nM incubated for 72 hrs by Annexin V-FITC/PI staining based flow cytometry analysis (reference value: 4.04 %); assay type: functional
[28] = AUC (0 to t) in Sprague-Dawley rat at 50 mg/kg, ip measured afer 24 hrs by LC-MS/MS analysis; assay type: ADME, organism-based; conditions: in vivo
[29] = MRT (0 to t) in Sprague-Dawley rat at 50 mg/kg, ip measured afer 24 hrs by LC-MS/MS analysis; assay type: ADME, organism-based; conditions: in vivo
[30] = test system: 4T1; experiment: Antitumor activity against mouse 4T1 cells implanted in athymic BALB/c mouse assessed as tumor inhibition rate at 12.5 mg/kg, ip administered for 14 days relative to control; assay type: functional; conditions: 4T1, 336 h, time 14 day
[31] = Toxicity in athymic BALB/c mouse implanted with mouse 4T1 cells assessed as body weight loss at 25 mg/kg, ip administered for 14 days; assay type: organism-based; conditions: in vivo, 336 h, time 14 day
[32] = test system: MDA-MB-231; experiment: Inhibition of RNA Polymerase II CTD phosphorylation at ser2 residue in human MDA-MB-231 cells at 1 uM incubated for 24 hrs by Western blotting analysis; assay type: cell-based
[33] = test system: 4T1; experiment: In vivo inhibition of RNA Pol II phosphorylation at ser2 in athymic BALB/c mouse implanted with mouse 4T1 cells at 12.5 to 25 mg/kg, ip administered once daily for 14 days by Western blot analysis; assay type: functional, organism-based; conditions: dose 12.5-25 mg/kg, time 14.0 day
[34] = test system: MDA-MB-231; experiment: Induction of apoptosis in human MDA-MB-231 cells assessed as necrotic cells at 1000 nM incubated for 72 hrs by Annexin V-FITC/PI staining based flow cytometry analysis (reference value: 0.49 %); assay type: functional

COc1ccc(C(=O)Nc2cc(-c3ccnc(N4CCC(O)CC4)c3)ccn2)cc1
Activity [1]: 0.17% | viability at 0.037 µM [2]: 83.6% | Activity [3]: inactive | inhibition [4]: Dose-Dependent Effect | Activity [5]: Non-Toxic | viability at 0.111 µM [6]: 43.6% | Activity [7]: inactive | inhibition in vivo at 25 mg/kg [8]: 86.1% | IC50 at 72 h [9]: 498 nM | Activity [10]: 20.4% | Activity [11]: Dose-Dependent Effect | viability at 0.333 µM [12]: 30.8% | Activity [13]: 0.17% | Activity [14]: 21.3% | Activity [15]: Non-Toxic | Activity [16]: inactive | Activity [17]: inactive | Activity [18]: 310.56 um | inhibition (INH) [19]: ~100% | Activity [20]: Non-Toxic | Activity [21]: Active | Activity [22]: inactive | IC50 at 72 h [23]: 756 nM | Activity [24]: Non-Toxic | inhibition [25]: Dose-Dependent Effect | Activity [26]: inactive | Activity [27]: 34.93% | AUC(0-t) at 24 h [28]: 17000 ng·h/mL | MRT last at 24 h [29]: 1.26 h | inhibition in vivo at 12.5 mg/kg [30]: 63.1% | Activity [31]: Toxic | inhibition [32]: Active | inhibition [33]: Active | Activity [34]: 0%
